Measurements from patent US10406227B2, “Photoactivated molecules for light-induced modulation of the activity of electrically excitable cells and methods of using same” (University of Southern California, priority 2012, dated 2019).

Tests used:
[1] = Time-resolved emission spectroscopy (luminescence decay kinetics); assay type: physicochemical; conditions: degassed dichloromethane; excited 355 nm, monitored 560 nm
Description: Time-resolved emission spectroscopy was used to characterize the MLCT excited state of the D-B-A complex. Luminescence decay kinetics were recorded in degassed dichloromethane. The D-B-A complex was excited at 355 nm with an 8-ns laser pulse and luminescence was monitored at 560 nm. […] For comparison, the MLCT lifetime of the reference complex, [Re(CO)3(bpy)(py)]+, determined under identical experimental conditions, is 550 ns.
While the rate of intramolecular ET is concentration independent, intermolecular quenching processes vary predictably with concentration. As such, it is possible to separate the two quenching mechanisms and obtain rate constants for each. Time-resolved luminescence measurements at a series of D-B-A concentrations allow a second order intermolecular quenching rate to be determined. As the concentration was increased, shorter lifetimes were recorded in both dichloromethane and acetonitrile.
This lifetime includes both the natural decay of the photoexcited rhenium as well as quenching through intramolecular electron transfer. […] As the difference in lifetime of the D-B-A and model complex is quite small, these values should be considered upper bounds.

[2] = test system: chromaffin cells; assay: Cell-attached membrane perforation test (capacitive charging transient); assay type: cell-based, mouse; conditions: positive control in pipette; within 5 minutes of gigaseal formation
Source text: FIGS. 5A-5H depict data from various experiments related to characteristics of RubpyC17-loaded cells. […] Inset images shown to the right of trace confirmed proper integration of RubpyC17 in patched cells. FIGS. 5C-5E show the light-induced action potential firing in chromaffin cells was not due to biophysical changes in voltage-gated ion channels as there were no significant changes in current-voltage relationships (C-D) nor in steady-state activation curve (E) in RubpyC17-loaded chromaffin cells before (open circle) or during ([…]) light illumination. […] Peak inward currents from each stimulation jump were plotted against corresponding stimulating voltages (n=6). […] Data from representative cell is shown (n=5). […] Currents resulting from capacitor-like behavior of chromaffin cell membranes during hyperpolarizing jumps to −85 mV from a resting membrane potential of −80 mV were recorded 5 min following giga-seal formation for amphoterecin B (bottom trace) or 10 min following giga-seal formation for RubpyC17 (top trace).
Finally, to test whether illumination of RubpyC17 incorporated in cell membranes causes nonspecific membrane poration or other damage, 18 μM RubpyC17 was loaded inside a patch pipette and attached to a cell (gigaseal formation) in the cell-attached configuration. […]

Row | Structure (SMILES) | luminescence (MLCT) lifetime [1] | capacitive charging transient (membrane perforation) [2]
1 | [C-]#[O+].[C-]#[O+].[C-]#[O+].[Re+].c1ccc(-c2ccccn2)nc1.c1ccncc1 [[Re(CO)3(bpy)(py)]+] | 550 ns | 
2 | C[C@@H]1[C@H](O)[C@@H](C)/C=C/C=C/C=C/C=C/C=C/C=C/C=C/[C@H](O[C@@H]2O[C@H](C)[C@@H](O)[C@H](N)[C@@H]2O)C[C@@H]2O[C@](O)(C[C@@H](O)C[C@@H](O)[C@H](O)CC[C@@H](O)C[C@@H](O)CC(=O)O[C@H]1C)C[C@H](O)[C@H]2C(=O)O [amphotericin B, reference compound] |  | a sizable capacitive charging transient
